We go through 1 compound from US20170121322A1, “BET-PROTEIN INHIBITING 3,4-DIHYDROPYRIDO[2,3-B]PYRAZINONES WITH META-SUBSTITUTED AROMATIC AMINO- OR ETHER GROUPS” (Bayer Pharma Aktiengesellschaft, priority 2014, published 2017).

The target in assay [1] is T1, BRD4 bromo domain 1 [BRD4(1)] (Homo sapiens, UniProt O60885).
T1 construct: N-terminally His6-tagged BRD4(1) (amino acids 67-152); made in house; host or cells: E. coli
Kind of assay: BRD4(1)/acetylated peptide H4 TR-FRET binding assay. Particulars: His6-BRD4(1) (aa 67-152) vs acetylated histone H4 peptide. The text has this: To assess the BRD4(1) binding strength of the substances described in this application, the ability thereof to inhibit the interaction between BRD4(1) and acetylated histone H4 in a dose-dependent manner was quantified.
(§1) For this purpose, a time-resolved fluorescence resonance energy transfer (TR-FRET) assay was used, which measures the binding between N-terminally His6-tagged BRD4(1) (amino acids 67-152) and a synthetic acetylated histone H4 (Ac-H4) peptide with sequence GRGK(Ac)GGK(Ac)GLGK(Ac)GGAK(Ac)RHGSGSK-biotin. The recombinant BRD4(1) protein produced in-house according to Filippakopoulos et al., Cell, 2012, 149:214-231 was expressed in E. coli and purified by means of (Ni-NTA) affinity and (Sephadex G-75) size exclusion chromatography. The Ac-H4 peptide can be purchased, for example, from Biosyntan (Berlin, Germany).
(§2) In the assay, typically 11 different concentrations of each substance (0.1 nM, 0.33 nM, 1.1 nM, 3.8 nM, 13 nM, 44 nM, 0.15 μM, 0.51 μM, 1.7 μM, 5.9 μM and 20 μM) were analysed as duplicates on the same microtitre plate. For this purpose, 100-fold concentrated solutions in DMSO were prepared by serial dilutions (1:3.4) of a 2 mM stock solution into a clear, 384-well microtitre plate (Greiner Bio-One, Frickenhausen, Germany). From this, 50 nl were transferred into a black test plate (Greiner Bio-One, Frickenhausen, Germany). The test was started by the addition of 2 μl of a 2.5-fold concentrated BRD4(1) solution (final concentration typically 10 nM in the 5 μl of reaction volume) in aqueous assay buffer [50 mM HEPES pH 7.5, 50 mM sodium chloride (NaCl), 0.25 mM CHAPS and 0.05% serum albumin (BSA)] to the substances in the test plate. This was followed by a 10-minute incubation step at 22° C. for the pre-equilibration of putative complexes between BRD4(1) and the substances. Subsequently, 3 μl of a solution of 1.67 times the concentration (in assay buffer) consisting of Ac-H4 peptide (83.5 nM) and TR-FRET detection reagents [16.7 nM anti-6His-XL665 and 3.34 nM streptavidin cryptate (both from Cisbio Bioassays, Codolet, France), and 668 mM potassium fluoride (KF)] were added.
(§3) The mixture was then incubated in the dark at 22° C. for one hour and then at 4° C. for at least 3 hours and for no longer than overnight. The formation of BRD4(1)/Ac-H4 complexes was determined by the measurement of the resonance energy transfer from the streptavidin-Eu cryptate to the anti-6His-XL665 antibody present in the reaction. For this purpose, the fluorescence emission was measured at 620 nm and 665 nm after excitation at 330-350 nm in a TR-FRET measuring instrument, for example a Rubystar or Pherastar (both from BMG Lab Technologies, Offenburg, Germany) or a Viewlux (Perkin-Elmer). The ratio of the emissions at 665 nm and at 622 nm was taken as an indicator of the amount of BRD4(1)/Ac-H4 complexes formed.
The data (ratios) obtained were normalized, with 0% inhibition corresponding to the mean from the measurements for a set of controls (typically 32 data points) in which all the reagents were present. In these, in place of test substances, 50 nl of DMSO (100%) were used. Inhibition of 100% corresponded to the mean from the measurements for a set of controls (typically 32 data points) in which all the reagents except BRD4(1) were present. The IC50 was determined by regression analysis based on a 4-parameter equation (minimum, maximum, IC50, Hill; Y=Max+(Min−Max)/(1+(X/IC50)Hill).
Background: TR-FRET usually uses a lanthanide donor and a delayed reading to cut background.

The target of assay [2] is T2, BRD4 bromo domain 2 [BRD4(2)] (Homo sapiens, UniProt O60885).
T2 construct: N-terminally His6-tagged BRD4(2) (amino acids 357-445); made in house; host or cells: E. coli
Kind of assay: BRD4(2)/acetylated peptide H4 TR-FRET binding assay. Particulars: His6-BRD4(2) (aa 357-445) vs acetylated histone H4 peptide.
From the text: To assess the BRD4(2) binding strength of the substances described in this application, the ability thereof to inhibit the interaction between BRD4(2) and acetylated histone H4 in a dose-dependent manner was quantified.
as §1, with “BRD4(2)” for “BRD4(1)”, “357-445)” for “67-152)”, “SGRGK(Ac)GGK(Ac)GLGK(Ac)GGAK(Ac)RHRKVLRDNGSGSK-biotin.” for “GRGK(Ac)GGK(Ac)GLGK(Ac)GGAK(Ac)RHGSGSK-biotin.”
as §2, with “concentrated BRD4(2)” for “concentrated BRD4(1)”, “typically 100” for “typically 10”, “chloride (NaCl); 50 mM potassium fluoride (KF);” for “chloride (NaCl),”, “between BRD4(2)” for “between BRD4(1)”, “substances.” for “substances. Subsequently, 3 μl of a solution of 1.67 times the concentration (in assay buffer) consisting of Ac-H4 peptide (83.5 nM) and TR-FRET detection reagents [16.7 nM anti-6His-XL665 and 3.34 nM streptavidin cryptate (both from Cisbio Bioassays, Codolet, France), and 668 mM potassium fluoride (KF)] were added.”
as §3, with “BRD4(2)/Ac-H4” for “BRD4(1)/Ac-H4”, “chelate” for “cryptate”
The data (ratios) obtained were normalized, with 0% inhibition corresponding to the mean from the measurements for a set of controls (typically 32 data points) in which all the reagents were present. In these, in place of test substances, 50 nl of DMSO (100%) were used. Inhibition of 100% corresponded to the mean from the measurements for a set of controls (typically 32 data points) in which all the reagents except BRD4(2) were present. The IC50 was determined by regression analysis based on a 4-parameter equation (minimum, maximum, IC50, Hill; Y=Max+(Min−Max)/(1+(X/IC50)Hill)).

The next assay deals with MOLM-13 cells. Kind of assay: Cell proliferation assay MOLM-13, method 2 (CellTiterGlo). Particulars: Homo sapiens, MOLM-13, 72 h; acute myeloid leukaemia cells, 500 cells/well, 1536-well, 3-day incubation, CellTiterGlo ATP readout. It counts as cell-based. How it is done: Alternatively, the MOLM-13 cells (DSMZ, ACC 554) were seeded at a concentration of 500 cells/well in 5 μl of growth medium (RPMI1640, 10% FCS) on 1536-well microtitre plates (method 2).
In method 2, after 3-day incubation with the inhibitor, the ATP concentration was determined as readout for the cell number using the CellTiterGlo kit (Promega). The measurement was carried out using a luminometer.
The substances were tested in the cell lines in Table 2, which represent the indications specified by way of example: […]
In general terms: ATP-based viability assays read luminescence as a measure of living cells.

On to `C[C@@H]1C(=O)N(C)c2ccc(Nc3cccc(S(C)(=N)=O)c3)nc2N1C1CCOCC1` (stereo partly drawn) [Example 44, (3R)-1,3-Dimethyl-6-{[3-(S-methylsulphonimidoyl)phenyl]amino}-4-(tetrahydro-2H-pyran-4-yl)-3,4-dihydropyrido[2,3-b]pyrazin-2(1H)-one], for which the IC50 in assay [1] was 3.64 µM; in assay [2] it was 7.34 µM; with MOLM-13 cells it was greater than 10 µM.

In general, IC50 refers to the concentration that inhibits the measured activity by half.
